Entries after “also recorded” stand apart in the source; their conditions may differ. A value given as a limit tells only on which side of the number the result lay.

Results on 3 substances are retold here after article PMC9563556, “Antibacterial and anti-inflammatory properties of host defense peptides against Staphylococcus aureus” (iScience, 2022).

Assay [1] has as its system Staphylococcus aureus strain SH1000. The assay is described as follows: Peptides direct antibacterial properties, broth micro-dilution, growth by OD 600 nm. To be noted: for direct antibacterial effect on S. aureus growth: broth micro-dilution in THB, inoculum 5 x 10^5 CFU/mL, 37°C, OD 600 nm every 5 min for 12 h, concentration range of peptide. The assay is classed as cell-based. How it is done: All experiments used GFP-labelled Staphylococcus aureus strain SH1000, transformed with a GFP-expressing plasmid pCM29 to constitutively express GFP, as previously described ([Boero et al., 2021]). Bacteria were grown overnight in Todd-Hewitt broth (THB) with 10 μg/mL chloramphenicol to reach stationary phase.
Peptides were diluted at different concentrations in α-MEM supplemented with 10% FBS or in THB when testing their effects on macrophages or bacteria, respectively.
Peptides direct antibacterial properties were determined by broth micro-dilution method. Overnight bacterial suspension was diluted in THB to reach a final inoculum concentration of 5 x 10^5 colony-forming units per mL (CFU/mL). Bacterial suspension and peptides dilutions were mixed in equal parts in a flat-bottom 96-well plate in triplicates in a total volume of 200 μL, and incubated at 37°C. Bacterial growth was monitored by measuring OD (600nm) continuously every 5 minutes for 12 h in Clariostar plate reader (BMG labtech) with gentle shaking before each measurement.

For assay [2], the system named is primary human macrophages infected with S. aureus. Briefly: "peptides during differentiation" model, S. aureus phagocytosis by flow cytometry. The assay is classed as cell-based. Conditions: for contribution to phagocytosis: peptides during monocyte differentiation, then infection. The method, then:
(§1) To assess the peptides influence on macrophages antibacterial properties, three different infection models studying intracellular bacteria survival, as outlined in Figures 3A, 5A, and 5D, were adopted. In all models, selected concentrations of peptides were used: 65 μM IDR-1018; 10 μM CATH-2; 10 μM LL-37.
(§2) The first step concerned the “peptides during infection” model, where cells were washed twice before incubation with the peptides for 24 h and subsequently bacteria were directly added to the culture without any washing step. In a subsequent step we assessed the “peptides during differentiation”, where peptides were added to the differentiation media for the first 3 days and removed after the regular media change; cells were washed twice before infection. In the third step we tested “peptides with MSCs”, where macrophages were cultured in presence of MSCs and peptides for 24 h; before infection cells were washed twice. All washing steps, before or after infection, were performed using warm α-MEM.
(§3) In all three models described, the same S. aureus infection protocol was applied. An overnight bacterial culture was diluted in α-MEM to reach a final inoculum concentration of 1 x 10^7 CFU/mL, and opsonized in 5% human pooled serum (HPS) for 15 min at 37°C. Opsonized S. aureus was added to the culture at a multiplicity of infection (MOI) = 1, meaning 1 bacterium per eukaryotic cell. To synchronize bacterial uptake, plates were centrifuged for 5 min, 110 x g at RT, and then moved to the incubator at 37°C, 5% CO2 for additional 25 min or 24 h. To study intracellular bacterial survival, after 30 min the cells were washed twice and cultured in media supplemented with 100 μg/mL gentamicin and 20 μg/mL lysostaphin for 1 h. Afterwards, cells were washed twice and incubated in media with only 5 μg/mL gentamicin. This treatment allows only intracellular bacteria to survive, as both gentamicin and lysostaphin are unable to penetrate mammalian cell membranes within short time periods ([Hamza et al., 2013]; [Hamza and Li, 2014]).
(§4) Samples were analyzed by flow cytometry and CFU counting at 30 min and 24 h after infection. Cells for flow cytometry were detached from the culture plate using 1mM DPBS/EDTA in combination with gentle scraping. When macrophages were cultured together with MSCs, samples were first trypsinzed and then scraped in DPBS/EDTA if cells were still attached to the bottom of the culture plate. Cells were moved to a 96-well plate and fixed in paraformaldehyde 4% before analysis. Samples were measured with MACSquant VYB (Miltenyi Biotech) flow cytometer and data analyzed with FlowJo. […] Non-infected samples were used to set GFP fluorescence baseline and define the proportion of infected, GFP-positive cells.

The conditions of assay [3]: cited from earlier work; for binding to LPS: "silent killing" mechanism, ref Coorens et al., 2017b. The text has this:
One may argue that the inhibition of LPS-mediated activation of macrophages was not caused by peptides’ direct interaction with the immune cells. It was shown via a mechanism named “silent killing” that CATH-2 and LL-37 bind LPS to inhibit macrophages receptors activation ([Coorens et al., 2017b]).

The subject of assay [4] is primary human macrophages infected with S. aureus. The assay is described as follows: "peptides during infection" model, S. aureus phagocytosis by flow cytometry. The assay is classed as cell-based. How it is done: as §1, §2, §3, §4
The test system is the same in assay [5]. The assay is described as follows: Confocal imaging, manual counting of intracellular bacteria ("peptides during infection" model). The assay is classed as cell-based. To be noted: 30 min infection, 50 randomly chosen cells. The method, then:
According to the “peptides during infection” model, after 30 min infection cells were harvested and fixed as described for flow cytometry analysis. Cells membranes were stained with 3 μg/mL Alexa Fluor 647-labelled Wheat Germ Agglutinin (WGA) for 10 min at RT, on a shaking plate. Then, samples were transferred to CELLview slide previously coated with poly-L-lysine, and imaged on a Leica TCS SP5 microscope with a HCX PL AP CS 63x/1.40-0.60 OIL objective (Leica Microsystems). For each condition, the number of intracellular bacteria was counted in 50 randomly chosen cells. Images were adjusted for publication using Image J Fiji.

The subject of assay [6] is intracellular S. aureus in primary human macrophages. The assay is described as follows: "peptides during differentiation" model, intracellular S. aureus by CFU counting. In kind it is cell-based. To be noted: 30 min and 24 h, n = 6. The method, then: as §1, §2
as §3, with “This treatment allows only intracellular bacteria to survive, as both gentamicin and lysostaphin are unable to penetrate mammalian cell membranes within short time periods ([Hamza et al., 2013]; [Hamza and Li, 2014]).” left out
(§5) To quantify the numbers of intracellular bacteria, cells were lysed with Triton X 0,1% and then plated on Todd-Hewitt agar plates in serial dilutions. Plates were incubated overnight at 37°C after which colonies were counted.

Assay [7] concerns primary human macrophages. Conditions: ref Pena et al., 2013; cited from earlier work. The text has this: In addition to TNF-α and IL-10, the peptides affected the expression of several other cytokines involved in immune cells’ activation and recruitment at the inflammation site (Figure 2E).
Assay [8] concerns intracellular S. aureus in primary human macrophages. The assay is described as follows: "peptides during infection" model, intracellular S. aureus by CFU counting. In kind it is cell-based. How it is done: as §1, §2, §3, §5
Assay [9] relates to primary human macrophages. Briefly: LPS-induced TNF-α and IL-10 release of macrophages (ELISA). In kind it is cell-based. To be noted: for inhibition of macrophage LPS-mediated activation: 10 ng/mL LPS O111:B4, 24 h, TNF-α and IL-10 by ELISA. How it is done: Isolated monocytes were seeded in a 24-well plate at a density of 300,000 cells/well, except where otherwise stated. Monocytes were differentiated to macrophages by culture for 7 days in α-Minimum Essential Medium (α-MEM) supplemented with 10% (v/v) hyclone fetal bovine serum (hyFBS), 100 U/mL penicillin- streptomycin (1% p/s), and 40 ng/mL human recombinant M-CSF. Culture media was refreshed after 3-4 days.
Monocytes were seeded in a 96-well plate at a density of 150,000 cells/well. After 7 days differentiation, macrophages were incubated with fresh media containing a range of peptides concentrations alone or in combination with 10 ng/mL LPS O111:B4 from E. coli. After 24 h stimulation, the supernatant was collected to measure LDH levels or TNF-α and IL-10 by ELISA, according to the manufacturer’s instructions. Both LDH and ELISA assays were performed in three independent experiments with measurements in triplicate.
(In general: In an ELISA, binding on a coated surface is turned into a signal by an enzyme label.)

The subject of assay [10] is primary human macrophages. The assay is described as follows: Macrophage phenotype markers CD80 / CD163 by flow cytometry. In kind it is cell-based. Conditions: 24 h, selected peptide concentrations alone or with LPS, n = 3. The method, then:
After 7 days differentiation, macrophages were incubated with fresh media with LPS, IL-4, and optimal concentrations of peptides alone or in combination with LPS. After 24 h stimulation, macrophages were detached from the culture plate and processed for staining into a 96-well plate. All washing steps were performed with cold 0,1% (w/v) bovine serum albumin (BSA)/PBS and centrifugation at 5 min, 500 x g. A panel of surface molecules was selected, based on previous reports for human macrophage polarization ([Ambarus et al., 2012]). The staining solutions were prepared by diluting the following fluorochrome-conjugated antibodies in PBS with 0,1% BSA and 1% (v/v) heat-inactivated human serum: CD16 (1:50); CD80 (1:50); CD163 (1:50). As a negative control, staining solution without antibodies was used. Cells were incubated with staining solutions for 30 min on ice, in the dark. Markers expression was measured via flow cytometer (FACSVerse, BD) and data analyzed using FlowJo.
(In general: A flow cytometer gives signals particle by particle.)

The subject of assay [11] is primary human macrophages. The assay is described as follows: Human cytokine array G5 after LPS and peptide stimulation. In kind it is cell-based. Conditions: 24 h LPS and peptides, n = 2. The method, then:
Qualitative expression of various cytokines and chemokines was measured in duplicate for selected conditions by human cytokine array G5, according to the manufacturer’s instructions.

[12] abbreviates: peptides in differentiation medium for the first 3 days, MOI 1, 30 min, n = 6.
The mark [13] stands for this setting: peptides 24 h before and during infection, 65 μM IDR-1018, 10 μM CATH-2, 10 μM LL-37, MOI 1, 30 min, n = 9.

As to “VRLIVAVRIWRR-NH2 [IDR-1018, bovine-derived cathelicidin host defense peptide, CPC Scientific]”, the “concentration from which the start of S. aureus exponential growth is delayed” value in assay [1] (THB, 12 h growth curve, OD 600 nm, n = 3) was not below 65 µM. In addition, the “direct antibacterial effect on S. aureus growth” value (“direct antibacterial effect” for short) in assay [1] (n = 3) is on record as “did not show antibacterial effects at any concentration tested”. In assay [2] (setting [12]), the “number of internalized bacteria (geometric mean of GFP signal), 30 min” value is on record as “significantly reduced” and the “proportion of infected macrophages, 30 min” value is given as “significantly reduced”. For the same substance, in [3] (ref Wieczorek et al., 2010), the “binding affinity to LPS” value is recorded as “did not show significant binding affinity to LPS”. For the same substance, in assay [4] (setting [13]), the “bacterial load, geometric mean of GFP signal, 30 min” value is listed as “markedly decrease phagocytosis” and the “fraction of infected cells (macrophages that phagocytosed at least 1 bacterial cell), 30 min” value is “significantly reduced the number of infected cells”. Further, the “amount of phagocytosed S. aureus, 24 h” value in [4] (peptides during infection model, 24 h after infection, n = 9 (Figure S5)) is “reduced the amount of phagocytosed S. aureus”. Besides, in assay [5], the “bacterial uptake by macrophages, manual counting of intracellular bacteria” value (“bacterial uptake by macrophages” below) is listed as “reduced the bacterial uptake by macrophages”. In assay [6], the “macrophage intracellular killing (CFU)” value is on record as “had no impact”. The “polarization of macrophages toward M1 or M2 phenotype” value in assay [7] is “did not correlate with the polarization of macrophages toward a clear M1 or M2 phenotype”. Also, in assay [8] (n = 9), the “effect on S. aureus surviving intracellularly (CFU), 30 min and 24 h” value was “no effects were observed”. In addition, in assay [9], the “inhibition of macrophage LPS-mediated activation” value is “inhibited macrophage lipopolysaccharide-mediated activation”. Further, the “concentration required for inhibition of LPS-mediated activation, compared among peptides” value in assay [9] (10 ng/mL LPS, 24 h, TNF-α and IL-10 ELISA) is recorded as “higher concentrations of IDR-1018 were required”.

For “LLGDFFRKSKEKIGKEFKRIVQRIKDFLRNLVPRTES [LL-37, human cathelicidin host defense peptide, InVivogen]”, the “direct antibacterial effect” value in [1] (n = 3) is listed as “did not show antibacterial effects at any concentration tested”. Also, the contribution to phagocytosis result in assay [2] was “had no impact”. In addition, the “binding to LPS” value in assay [3] was “bind LPS”. Moreover, the “polarization of macrophages toward M1 (CD80) or M2 (CD163) phenotype” value in assay [10] is “kept macrophages in an intermediate state”. Also, the “expression of MIP-1β, RANTES and MCP-1,2,3” value in assay [11] was “stronger inhibition of the LPS activation of macrophages”. Besides, the “bacterial uptake by macrophages” value in assay [5] was “did not provide such effect”. The “macrophage intracellular killing (CFU)” value in [6] is listed as “had no impact”. The “effect on S. aureus surviving intracellularly (CFU), 30 min and 24 h” value in [8] (n = 9) is reported as “no effects were observed”. For the same substance, the “inhibition of macrophage LPS-mediated activation” value in [9] is reported as “inhibited macrophage lipopolysaccharide-mediated activation”.

As to “RFGRFLRKIRRFRPKVTITIQGSARF-NH2 [CATH-2, chicken cathelicidin host defense peptide, CPC Scientific]”, the “concentration arresting S. aureus growth, relative to that needed to inhibit macrophage LPS-mediated activation” value in [1] (THB, 12 h growth curve, compared with LPS inhibition assay) was determined as 10 times lower. The “direct antibacterial effect” value in assay [1] (n = 3) is “had direct antibacterial properties”. In addition, in assay [2], the contribution to phagocytosis entry is “lost its contribution to phagocytosis; also recorded: had no impact”. Further, the “binding to LPS” value in assay [3] is reported as “bind LPS”. The “polarization of macrophages toward M1 (CD80) or M2 (CD163) phenotype” value in assay [10] is reported as “kept macrophages in an intermediate state”. Moreover, the “bacterial load, geometric mean of GFP signal, 30 min” value in [4] (setting [13]) is “slightly reduced the bacterial load in macrophages”. Besides, the “bacterial uptake by macrophages” value in [5] was “reduced the bacterial uptake by macrophages”. The “macrophage intracellular killing (CFU)” value in assay [6] was “had no impact”. Also, the “number of S. aureus surviving intracellularly (CFU), 30 min” value in [8] (10 μM CATH-2, 65 μM IDR-1018, 10 μM LL-37, n = 9) was “significantly reduced”. In assay [8] (gentamicin and lysostaphin after 30 min, n = 9), the “number of S. aureus surviving intracellularly (CFU), 24 h” value is “not statistically significant; also recorded: comparable to the non-stimulated group”. For the same substance, the “inhibition of macrophage LPS-mediated activation” value in [9] is recorded as “inhibited macrophage lipopolysaccharide-mediated activation”.
